Experimental data as given in patent publication US5498624A, “Selected pyrazolyl derivatives” (Monsanto Company, priority 1995, dated 1996).

Assays:
Format in all cases: in vivo
[1] = test system: Pseudocercosporella herpotrichoides var. tritici; test: Wheat True Eyespot Foliar Protectant Treatment (WES Prot)
Description: A) Pathogen/Inoculum Production--Follows as per Example 4.
B) Host Propagation--Wheat seedlings, cv. Hart, are grown to the third leaf stage in a commercial soil preparation, "Metro Mix 200", amended with 100 gm/ft^3 slow release "Osmocote 14-14-1438 . A sufficient number of seeds are planted per pot (5 cm in diameter) in order to insure the production of 5 vigorous seedlings per pot. The plants are maintained in a growth chamber set at 21° C., 80% RH with a 12 hour photoperiod. Light intensity is set at 300 me/m^2 /sec.
C) Test Compound Preparation
1) Experimental compounds--Follows as per Example 1.
2) Controls and Standards--The commercial fungicide, prochloraz, applied at 20 and 5 ppm, is used as the standard for wheat eyespot control. Control treatments are sprayed only with the formulation solution.
D) Compound Application--Wheat plants are sprayed at the three leaf stage. The solution is foliarly applied to the basal stem area of the wheat using a Devilbiss Model 152 hand sprayer. The treated wheat is allowed to air dry at room temperature before being returned to a growth chamber. The growth chamber is set at 15° C., 85% RH and a 12 hour photoperiod. Light intensity is maintained at 300 me/m^2 /sec.
E) Inoculation/Incubation - The treated wheat plants are inoculated 24 hours after chemical treatment. Inoculation is done by spraying a 3×10^5 spores/ml suspension at the basal stem area of each plant. Approximately 1 ml of spore suspension is applied to each plant. Following inoculation, the basal stem area of the plants are covered with a 2-3 cm thick layer of fine vermiculite. The vermiculite is watered lightly and the plants returned to the growth room. The inoculated plants remain in the growth chamber for 4 weeks after which time they are evaluated for disease control.
F) Evaluation--Treatments are evaluated four weeks after inoculation. Disease assessment is based on the percent girdling of the stem base caused by an eyespot lesion. Five plants are rated per replicate. Phytotoxicity and growth effects are also noted at this time.
G) Data--All replicate data is recorded as a percent disease value. Treatment means are calculated and percent disease control is determined by the formula: (control mean--treatment mean)*100/control mean. The inoculated control treatment mean is used for this calculation. The percent protection values for the compounds of the present invention are as set out in the Table below.

[2] = test system: Erysiphe graminis f. sp. tritici; test: Wheat Powdery Mildew Foliar Assay (WPM Prot)
Description: A) Pathogen/Inoculum Production--Leaf material infected with the wheat powdery mildew fungus, Erysiphe graminis f. sp. tritici, is maintained continuously on wheat seedlings, cv. Caldewell.
(B) Host Propagation, (C) Compound Preparation and (D) Compound Application follow as per Example 1.
(E) Inoculation/Incubation--Inoculation of the test plants takes place 24 hours after compound application. Inoculation is accomplished by gently shaking plants previously infected with the Erysiphe graminis f. sp. tritici fungus over the test plants. This process liberates a cloud of spores which effectively and uniformly fall onto the test plants. After inoculation the plants are returned to the environmental conditions under which they were grown.
(F) Evaluation and (G) Data follow as per Example 1. The percent protection values for the compounds of the present invention are as set out in the Table below.

[3] = test system: Septoria nodorum; test: Wheat Glume Blotch Foliar Assay, protectant (WGB Prot); settings: application two days pre-inoculation
Description: A) Host Propagation--Winter wheat plants, cv. Caldwell, are grown in 5.7 cm^2 pots, three per pot, and maintained in a growth chamber set at 20° C., 80% RH with a 12 hour photoperiod.
B) Compound Preparation--A 1.0% stock solution of each of the compounds of the present invention is first prepared utilizing an appropriate solvent such as acetone, water or DMSO. This stock is then used to prepare the final spray solution which contains the compound at the desired dosage, eg 100 ppm and 20 ppm, acetone at 20% v/v, Tween®20 at .05% w/v, and water at about 80%. Commercial standard used is tebuconazole at equivalent rates.
C) Compound Application, Seedlings are sprayed at the two-leaf stage (GS 12) using a DeVilbiss Model 152 hand operated sprayer set at 15-20 psi. Six ml of the test solution per treatment are applied to three pots. In the protectant assay (EXAMPLE 8), the compound application is made two days pre-inoculation. In the curative assay (EXAMPLE 9), the compound is applied during a brief interruption of the disease incubation period two days post-inoculation.
D) Pathogen Production/Inoculation--The wheat glume blotch fungus, Septoria nodorum, is maintained in the pycnidial state on yeast malt agar (YMA) and transferred weekly by streaking a suspension of conidia obtained from a ten to twelve day old sporulating culture onto fresh YMA plates. The plates are incubated at 20° C. with a 12 hour photoperiod.
Test inoculum is prepared by flooding seven day old culture plates with deionized water amended with Tween®20 (0.1% v/v) and gently scraping the pycnidia to release the extruding masses of conidia. The resulting spore suspension is filtered through two layers of cheese cloth and adjusted to 4×10^6 spores/ml utilizing the Tween®20 solution.
Forty-eight hours after the compound application and prior to inoculation, the test plants are preconditioned for at least one hour in a dark growth chamber set at 20° C. and 100% RH. After the preconditioning period is over, the conidial suspension is applied to run-off using a DiVilbiss hand operated sprayer. The plants are then returned to the preconditioning chamber and incubated at the same settings for 96 hours. Light is supplied to the plants during the last twelve hours of incubation. At the end of the 96 hour period, the plants are returned to the environmental conditions under which they were grown.
E) Test Evaluation--Eight to ten days after removal from the high humidity chamber, or twelve to fourteen days after inoculation, treatments are evaluated by visually estimating the percentage of the leaf area (on the first leaf) covered with lesions. Three ratings are made on each pot which constitutes a replicate. Each replicate then receives a numerical mean by averaging the three values. Percent disease, as well as percent control values are calculated. The percent control values obtained from these assays for the compounds of the present invention are as set out in the Table below.

[4] = test system: Botrytis cinerea; test: Vine Grey Mold on Berries (VGM Cur); settings: grape berries, treated 24 hours after inoculation
Description: Vine Grey Mold on Berries (VGM Cur)--Assay is as set out above in EXAMPLE 11 except for step E) which is: Test Execution--In the curative test the berries are first inoculated as described, six per petri plate and placed in incubation. After 24 hours, the berries are temporarily removed from incubation, placed into 12-well tissue culture plates (one per well), treated, and then returned to incubation.

[5] = 20 ppm foliar protectant, * = averaged value
[6] = 100 ppm foliar protectant, * = averaged value
[7] = 500 ppm foliar protectant, four weeks after inoculation

Row | SMILES | WES Prot percent disease control [1, 5] [%] | WES Prot percent disease control [1, 6] [%] | WPM Prot percent disease control [2, 5] [%] | WPM Prot percent disease control [2, 6] [%] | WGB Prot percent control ([3]; 20 ppm, * = averaged value) [%] | WGB Prot percent control ([3]; 100 ppm, * = averaged value) [%] | WGB Prot percent control ([3]; 500 ppm, wheat) [%] | VGM Cur percent disease control ([4]; 20 ppm) [%] | VGM Cur percent disease control ([4]; 50 ppm) [%] | WES Prot percent disease control [1, 7] [%] | WPM Prot percent disease control ([2]; 500 ppm foliar protectant) [%]
1 | C[C@@H]1CCC[C@H](c2ccccc2NC(=O)c2cn(C)nc2C(F)F)C1 (relative stereo) [Number 2, 1H-pyrazole-4-carboxamide, 3-(difluoromethyl)-1-methyl-N-[2-(-3-methylcyclohexyl)phenyl]-, cis-] | 12 | 82 | 44 | 65 | 56 | 86 | 99 | 41 | 82 | – | –
2 | C[C@H]1CCC[C@H](c2ccccc2NC(=O)c2cn(C)nc2C(F)F)C1 (relative stereo) [Number 3, 1H-pyrazole-4-carboxamide, 3-(difluoromethyl)-1-methyl-N-[2-(3-methylcyclohexyl)phenyl]-, trans-] | 01 | 95 | 77 | 100 | 79 | 90 | – | 84 | 90 | – | –
3 | Cn1cc(C(=O)Nc2ccccc2[C@@H]2CCC[C@@H](C(F)(F)F)C2)c(C(F)F)n1 (relative stereo) [Number 6] | – | 90 | – | – | 70 | 86 | 89 | – | – | 100 | 98
4 | CC[C@H]1CC[C@@H](c2ccccc2NC(=O)c2cn(C)nc2C(F)F)CC1 [Number 1, 1H-pyrazole-4-carboxamide, 3-(difluoromethyl)-N-[2-(4-ethylcyclohexyl)phenyl]-1-methyl-, cis-] | 29 | 79 | – | – | – | – | – | – | – | 100 | –
5 | Cn1cc(C(=O)Nc2ccccc2[C@H]2CC[C@H](C)CC2)c(C(F)(F)F)n1 [Number 4, 1H-pyrazole-4-carboxamide, 1-methyl-N-[2-(4-methylcyclohexyl)phenyl]-3-(trifluoromethyl)-, trans-] | 54 | 98 | 65 | 91 | 81 | 97 | – | 19 | 69 | 100 | 100
6 | Cn1cc(C(=O)Nc2ccccc2C2CCC(C)(C)CC2)c(C(F)F)n1 [Number 5, 1H-pyrazole-4-carboxamide, 3-(difluoromethyl)-N-(2-(4,4-dimethylcyclohexyl)phenyl]-1-methyl-] | 59 | 99 | 52 | 79 | 47 | 93 | – | – | – | – | 92
